For one assay, the target named is T1, recombinant human PKM2 (Homo sapiens, UniProt P14618).
T1 construct: His (N); purchased R&D Systems
Kind of assay: Human PKM2 activation assay (Kinase-Glo Plus luminescent detection of generated ATP). It counts as biochemical. The settings on record: for Emax: read-out: hPKM2 Emax; for EC50: read-out: hPKM2 EC50. Put shortly:
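N-His-tagged recombinant hPKM2 ([…]) with PEP and ADP was incubated with compound for 60 min at 26 °C, shaking, in 50 mM imidazole, 50 mM KCl, 7 mM MgCl2, 0.01% Tween20, 0.05% BSA, pH 7.2. ATP produced was read by Kinase-Glo Plus luminescence after 15 min.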
(In general: Kinase-Glo measures the ATP left after a reaction by luminescence.)

A further assay addresses T2, recombinant human PKLR (Homo sapiens, UniProt P30613).
T2 construct: His (N); purchased R&D Systems
As to the kind of experiment: Human PKLR activation assay (Kinase-Glo Plus luminescent detection of generated ATP). It counts as biochemical. The note with it: for EC50: activation of recombinant human PKLR, 4-parameter logistic fit, read-out: hPKLR EC50; for Emax: read-out: hPKLR Emax (%). How it is done:
Compound activation of recombinant human PKLR pyruvate kinase activity was determined by biochemical assay. N-terminal His-tagged enzyme was sourced from R&D Systems and its substrates phosphoenolpyruvate (PEP) and ADP from Sigma-Aldrich and 2Bscientific Ltd, respectively. The Kinase-Glo® Plus luminescence assay was from Promega. All other reagents were from Sigma-Aldrich. Test Compounds were prepared as 10 mM DMSO stocks and dilution series prepared in DMSO for direct dilution into Assay Buffer comprising 50 mM imidazole, 50 mM KCl, 7 mM MgCl2, 0.01% Tween20, 0.05% BSA (pH 7.2).
Human PKLR was diluted into Assay Buffer to a final concentration of 5 pM. Enzyme-Assay Buffer mix was dispensed into 384-well shallow-well white-walled plates and Test Compounds added by acoustic dispense (Echo®, Labcyte Inc).
After 60 minutes' incubation on an orbital shaker (300 rpm, 26° C.), enzyme activity was quantified by the luminescent detection of generated ATP. Kinase-Glo® Plus reagent was added to each well and the plates incubated for a further 15 minutes on an orbital shaker in the dark (300 rpm, 26° C.) before luminescence measurement on a plate reader (PHERAstar® FSX, BMG Labtech).
Percentage activation was calculated by normalising […] signals to plate LOW (DMSO vehicle) and HIGH (5 μM TEPP-46) controls. EC50 and Emax values were determined from 4-parameter logistic fits of compound concentration-response curves.

The mark [1] stands for this setting: percentage activation normalised to DMSO vehicle (LOW) and 5 μM TEPP-46 (HIGH).
Where [2] appears, read: recombinant human PKM2 activation, 4-parameter logistic fit.
Where [3] appears, read: percentage activation normalised to DMSO vehicle (LOW) and 5 μM TEPP-46 (HIGH) controls.

This is an account of results in US20260152487A1 (Sitryx Therapeutics Limited, priority 2021, published 2026).

Where two headings read alike, the source gives them in different places.

T2 sequence (P30613 whole entry): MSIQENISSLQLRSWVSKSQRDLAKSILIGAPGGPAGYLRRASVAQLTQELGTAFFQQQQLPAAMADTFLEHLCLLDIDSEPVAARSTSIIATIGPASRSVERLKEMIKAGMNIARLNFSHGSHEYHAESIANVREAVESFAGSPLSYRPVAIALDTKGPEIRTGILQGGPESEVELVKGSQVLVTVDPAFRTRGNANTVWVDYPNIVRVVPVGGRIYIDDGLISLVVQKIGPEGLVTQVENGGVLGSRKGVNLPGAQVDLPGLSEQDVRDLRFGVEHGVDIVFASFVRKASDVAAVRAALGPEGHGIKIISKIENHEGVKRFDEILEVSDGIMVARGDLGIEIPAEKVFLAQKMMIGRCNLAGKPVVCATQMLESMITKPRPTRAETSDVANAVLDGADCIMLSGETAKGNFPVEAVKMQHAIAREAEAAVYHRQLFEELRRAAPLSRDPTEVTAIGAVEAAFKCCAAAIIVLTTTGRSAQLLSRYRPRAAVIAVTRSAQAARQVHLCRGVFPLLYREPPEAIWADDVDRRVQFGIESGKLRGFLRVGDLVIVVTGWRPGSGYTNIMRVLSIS
T1 sequence (P14618 2-531 limits assumed): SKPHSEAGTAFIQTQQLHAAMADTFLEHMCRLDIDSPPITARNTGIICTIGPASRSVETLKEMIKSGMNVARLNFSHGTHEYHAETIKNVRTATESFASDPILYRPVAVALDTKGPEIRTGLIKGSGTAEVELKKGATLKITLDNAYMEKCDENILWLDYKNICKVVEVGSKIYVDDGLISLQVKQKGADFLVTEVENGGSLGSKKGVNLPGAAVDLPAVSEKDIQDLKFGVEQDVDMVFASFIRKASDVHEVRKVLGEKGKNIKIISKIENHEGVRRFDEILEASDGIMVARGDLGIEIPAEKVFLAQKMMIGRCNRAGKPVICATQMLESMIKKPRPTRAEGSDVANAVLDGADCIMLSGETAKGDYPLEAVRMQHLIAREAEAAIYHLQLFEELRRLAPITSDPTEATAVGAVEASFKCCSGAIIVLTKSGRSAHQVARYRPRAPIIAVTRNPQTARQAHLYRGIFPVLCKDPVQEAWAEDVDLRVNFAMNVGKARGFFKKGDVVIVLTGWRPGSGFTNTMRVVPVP

The term Emax denotes the size of the effect at its maximum, as opposed to the concentration needed. For orientation: EC50 means the concentration needed to bring the measured effect to its halfway point. In the case of `O=c1c2ccc(S(=O)(=O)c3ccc4occc4n3)cc2cnn1Cc1ccn(C2CC2)n1` [Example 256, 2-((1-cyclopropyl-1H-pyrazol-3-yl)methyl)-6-(furo[3,2-b]pyridin-5-ylsulfonyl)phthalazin-1(2H)-one], the Emax at recombinant human PKM2 (setting [1]) was determined as 95.5%; on recombinant human PKLR (setting [3]), 136%. Also, the figures for the EC50 at recombinant human PKM2 (setting [2]) and at recombinant human PKLR were 31.7 nM and 3.33 nM, respectively.

Consider `O=c1c2ccc(S(=O)(=O)c3ccc4occc4n3)cc2cnn1Cc1cc[nH]n1` [Example 223, 2-((1H-pyrazol-3-yl)methyl)-6-(furo[3,2-b]pyridin-5-ylsulfonyl)phthalazin-1(2H)-one], for which the results for the Emax on recombinant human PKM2 (setting [1]) and on recombinant human PKLR (setting [3]) were 107% and 132%, respectively. In addition, the half-maximal effective concentration (EC50) on recombinant human PKM2 (setting [2]) was found to be 45 nM; on recombinant human PKLR, 4.9 nM.

Consider `O=c1c2ccc(S(=O)(=O)c3cnn(C4CC4)c3)cc2cnn1Cc1cc[nH]n1` [Example 228, 2-((1H-pyrazol-3-yl)methyl)-6-((1-cyclopropyl-1H-pyrazol-4-yl)sulfonyl)phthalazin-1(2H)-one], for which the figures for the EC50 at recombinant human PKM2 (data from repeat experiments (*)), on recombinant human PKM2 (setting [2]) and at recombinant human PKLR were 41.5 nM, 40.4 nM and 21.2 nM, respectively. The maximum response (Emax) came to 112% at recombinant human PKM2 (line of the repeat experiment (EC50 marked *)), 116% at recombinant human PKM2 (setting [1]) and 119% on recombinant human PKLR (setting [3]).

In the case of `Cc1[nH]nc(Cn2ncc3cc(S(=O)(=O)c4cn[nH]c4)ccc3c2=O)c1Cl` [Example 314], the Emax is 94.9% on recombinant human PKM2 (setting [1]) and 114% on recombinant human PKLR (setting [3]). The concentration giving a half-maximal response (EC50) was found to be 46.3 nM on recombinant human PKM2 (setting [2]) and 4.27 nM on recombinant human PKLR.

For `Cc1cccc(Cn2ncc3cc(S(=O)(=O)c4cnn(C5CC5)c4)ccc3c2=O)n1` [Example 259, 6-((1-cyclopropyl-1H-pyrazol-4-yl)sulfonyl)-2-((6-methylpyridin-2-yl)methyl)phthalazin-1(2H)-one], the Emax amounted to 96.7% on recombinant human PKM2 (setting [1]) and 123% on recombinant human PKLR (setting [3]). The EC50 was found to be 46.1 nM on recombinant human PKM2 (setting [2]) and 13.1 nM at recombinant human PKLR.

In the case of `Cc1nc(S(=O)(=O)c2ccc3c(=O)n(Cc4cc[nH]n4)ncc3c2)cs1` [Example 320], the Emax on recombinant human PKM2 (setting [1]) stood at 99.6%; on recombinant human PKLR (setting [3]) it was 131%. The EC50 at recombinant human PKM2 (setting [2]) was 120 nM; on recombinant human PKLR it was 14.8 nM.

`O=c1c2ccc(S(=O)(=O)c3ccccc3)cc2cnn1Cc1n[nH]cc1F` [Example 110, 2-((4-fluoro-1H-pyrazol-3-yl)methyl)-6-(phenylsulfonyl)phthalazin-1(2H)-one]: the Emax at recombinant human PKM2 (setting [1]) was determined as 119%; on recombinant human PKLR (setting [3]), 118%. The EC50 on recombinant human PKM2 (setting [2]) came to 68.6 nM; at recombinant human PKLR, 29.6 nM.

For `O=c1c2ccc(S(=O)(=O)c3cnn(C4CC4)c3)cc2cnn1Cc1cccnc1O` [Example 193, 6-(1-cyclopropyl-1H-pyrazol-4-ylsulfonyl)-2-((2-hydroxypyridin-3-yl)methyl)phthalazin-1(2H)-one], the results for the Emax at recombinant human PKM2 (setting [1]) and on recombinant human PKLR (setting [3]) were 84.9% and 111%, respectively. The EC50 worked out at 161 nM at recombinant human PKM2 (setting [2]) and 86.3 nM on recombinant human PKLR.

In the case of `COc1ccc([S@@](=N)(=O)c2ccc3c(=O)n(Cc4ccc(OC)nc4)ncc3c2)cc1` (single isomer, unassigned) [Example 191], at recombinant human PKM2 (setting [1]), the “hPKM2 Emax” value was determined as 91.2%. Besides, the figures for the EC50 at recombinant human PKM2 (setting [2]) and at recombinant human PKLR were 85.6 nM and 14 nM, respectively. Further, the “hPKLR Emax (%)” value on recombinant human PKLR (setting [3]) stood at 133%.

Consider `Cc1ccc(F)c(Cn2ncc3cc(S(=O)(=O)c4cn[nH]c4)ccc3c2=O)n1` [Example 252, 6-((1H-pyrazol-4-yl)sulfonyl)-2-((3-fluoro-6-methylpyridin-2-yl)methyl)phthalazin-1(2H)-one], for which the Emax on recombinant human PKM2 (setting [1]) was determined as 105%; on recombinant human PKLR (setting [3]) it was 120%. Moreover, the results for the EC50 at recombinant human PKM2 (setting [2]) and at recombinant human PKLR were 107 nM and 18 nM, respectively.

With `Cc1cccc(Cn2ncc3cc(S(=O)(=O)c4cn[nH]c4)ccc3c2=O)n1` [Example 238, 6-((1H-pyrazol-4-yl)sulfonyl)-2-((6-methylpyridin-2-yl)methyl)phthalazin-1(2H)-one], the Emax on recombinant human PKM2 (setting [1]) is 108%; on recombinant human PKLR (setting [3]) it was 127%. Moreover, the results for the EC50 on recombinant human PKM2 (setting [2]) and at recombinant human PKLR were 125 nM and 14.4 nM, respectively.

In the case of `Nc1cccc(Cn2ncc3cc(S(=O)(=O)c4ccccc4)ccc3c2=O)c1` [Example 141, 2-(3-aminobenzyl)-6-(phenylsulfonyl)phthalazin-1(2H)-one], the Emax amounted to 113% at recombinant human PKM2 (setting [1]) and 108% on recombinant human PKLR (setting [3]). The EC50 on recombinant human PKM2 (setting [2]) was determined as 78.3 nM; on recombinant human PKLR it was 8 nM.

Regarding `O=c1c2ccc(S(=O)(=O)c3cn[nH]c3)cc2cnn1Cc1ccc2occc2n1` [Example 298, 6-((1H-pyrazol-4-yl)sulfonyl)-2-(furo[3,2-b]pyridin-5-ylmethyl)phthalazin-1(2H)-one], the Emax at recombinant human PKM2 (setting [1]) was found to be 108%; at recombinant human PKLR (setting [3]), 118%. In addition, the results for the EC50 on recombinant human PKM2 (setting [2]) and on recombinant human PKLR were 19.6 nM and 2.65 nM, respectively.

Consider `C[C@H]1Cc2cc(S(=O)(=O)c3ccc4c(=O)n(Cc5ccn(C)n5)ncc4c3)ccc2O1` [Example 219, (S)-2-((1-methyl-1H-pyrazol-3-yl)methyl)-6-((2-methyl-2,3-dihydrobenzofuran-5-yl)sulfonyl)phthalazin-1(2H)-one], for which the maximal effect (Emax) on recombinant human PKM2 (setting [1]) was found to be 106%; on recombinant human PKLR (setting [3]) it was 124%. Moreover, the EC50 at recombinant human PKM2 (setting [2]) is 44.2 nM; at recombinant human PKLR it was 10.2 nM.

Regarding `Cc1cccc(Cn2ncc3cc(S(=O)(=O)c4cnn(C5COC5)c4)ccc3c2=O)n1` [Example 270, 2-((6-methylpyridin-2-yl)methyl)-6-((1-(oxetan-3-yl)-1H-pyrazol-4-yl)sulfonyl)phthalazin-1(2H)-one], the Emax was 103% at recombinant human PKM2 (setting [1]) and 136% on recombinant human PKLR (setting [3]). The figures for the EC50 at recombinant human PKM2 (setting [2]) and on recombinant human PKLR were 138 nM and 108 nM, respectively.

Take `Cc1cc(F)c(Cn2ncc3cc(S(=O)(=O)c4cn[nH]c4)ccc3c2=O)nc1C` [Example 321]: the Emax was found to be 100% on recombinant human PKM2 (setting [1]) and 134% at recombinant human PKLR (setting [3]). The values for the EC50 on recombinant human PKM2 (setting [2]) and on recombinant human PKLR were 73.4 nM and 6.57 nM, respectively.

In the case of `Cn1ccc(Cn2ncc3cc(S(=O)(=O)c4ccccc4)c(NCCO)cc3c2=O)n1` [Example 244, 7-((2-hydroxyethyl)amino)-2-((1-methyl-1H-pyrazol-3-yl)methyl)-6-(phenylsulfonyl)phthalazin-1(2H)-one], the results for the Emax on recombinant human PKM2 (setting [1]) and at recombinant human PKLR (setting [3]) were 105% and 123%, respectively. Moreover, the EC50 on recombinant human PKM2 (setting [2]) worked out at 206 nM; at recombinant human PKLR, 27.4 nM.

Take `COc1ccc(Cn2ncc3cc(S(=O)(=O)c4ccc(C)cc4)ccc3c2=O)cn1` [Example 150, 2-((6-methoxypyridin-3-yl)methyl)-6-tosylphthalazin-1(2H)-one]: the values for the Emax on recombinant human PKM2 (setting [1]) and on recombinant human PKLR (setting [3]) were 90.4% and 85.4%, respectively. For the same compound, the concentration giving a half-maximal response (EC50) at recombinant human PKM2 (setting [2]) stood at 44.3 nM; on recombinant human PKLR, 6.4 nM.

As to `O=c1c2ccc(S(=O)(=O)c3cc4c(cn3)OCC4)cc2cnn1Cc1cc[nH]n1` [Example 258, 2-((1H-pyrazol-3-yl)methyl)-6-((2,3-dihydrofuro[2,3-c]pyridin-5-yl)sulfonyl)phthalazin-1(2H)-one], the Emax at recombinant human PKM2 (setting [1]) was 108%; on recombinant human PKLR (setting [3]), 142%. The EC50 on recombinant human PKM2 (setting [2]) came out at 88.8 nM; at recombinant human PKLR it was 15.3 nM.

`CC(O)c1nc(S(=O)(=O)c2ccc3c(=O)n(Cc4ccc5c(n4)CCO5)ncc3c2)cs1` (stereo not shown) [Example 327]: the Emax on recombinant human PKM2 (setting [1]) amounted to 10%; at recombinant human PKLR (setting [3]), 124%. In addition, the EC50 on recombinant human PKM2 (setting [2]) is 36.9 nM; at recombinant human PKLR, 3.71 nM.

As for `O=c1c2ccc(S(=O)(=O)c3ccc4c(c3)CCO4)cc2cnn1Cc1cc[nH]n1` [Example 203, 2-((1H-pyrazol-3-yl)methyl)-6-((2,3-dihydrobenzofuran-5-yl)sulfonyl)phthalazin-1(2H)-one], the Emax on recombinant human PKM2 (setting [1]) worked out at 114%; at recombinant human PKLR (setting [3]) it was 123%. Further, the EC50 was 35.3 nM on recombinant human PKM2 (setting [2]) and 2.4 nM on recombinant human PKLR.

With `O=c1c2ccc(S(=O)(=O)c3ccc4occc4c3)cc2cnn1Cc1cc[nH]n1` [Example 195, 2-((1H-pyrazol-3-yl)methyl)-6-(benzofuran-5-ylsulfonyl)phthalazin-1(2H)-one], the Emax at recombinant human PKM2 (setting [1]) was 112%; at recombinant human PKLR (setting [3]) it was 121%. In addition, the EC50 on recombinant human PKM2 (setting [2]) was 18.4 nM; at recombinant human PKLR, 2 nM.

On to `O=c1c2ccc(S(=O)(=O)c3cnn(C4CC4)c3)cc2cnn1Cc1ccn(C2CC2)n1` [Example 196, 2-((1-cyclopropyl-1H-pyrazol-3-yl)methyl)-6-((1-cyclopropyl-1H-pyrazol-4-yl)sulfonyl)phthalazin-1(2H)-one], for which the Emax on recombinant human PKM2 (setting [1]) was found to be 98.9%; at recombinant human PKLR (setting [3]), 120%. For the same compound, the results for the EC50 at recombinant human PKM2 (setting [2]) and at recombinant human PKLR were 47.6 nM and 17 nM, respectively.
